Experimental data taken from PubChem BioAssay AID220 (DTP/NCI, 2004).
Inconclusive results are not listed.

Test system: CD8F1 mice, subcutaneous mammary adenocarcinoma, T/C%
Experiment: NCI In Vivo Anticancer Drug Screen. Data for tumor model Mammary Adenocarcinoma CD8F1 (subcutaneous) in CD8F1
Conditions: higher = larger tumour
Method in brief: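 Tumor-bearing mice, transplantable model; readout survival or tumor size; value = treated (T) / vehicle control (C).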

[1] = endpoint: median tumor weight (est.), dose: 25.0 mg/kg/injection, schedule: Q07DX005 (ip), vehicle: saline with Tween-80
[2] = endpoint: median tumor weight (est.), dose: 100.0 mg/kg/injection, schedule: Q07DX005 (ip), vehicle: saline with Tween-80
[3] = endpoint: median tumor weight (est.), dose: 200.0 mg/kg/injection, schedule: Q07DX005 (ip), vehicle: saline with Tween-80
[4] = endpoint: median tumor weight change, dose: 250.0 mg/kg/injection, schedule: Q01DX001 (ip), vehicle: saline with Tween-80

CCCCc1ccc2nc(NC(=O)OC)[nH]c2c1
T/C (endpoint: mean tumor weight, dose: 12.5 mg/kg/injection, schedule: Q07DX006 (ip), vehicle: saline with Tween-80): 196 % of control | T/C (endpoint: mean tumor weight, dose: 100.0 mg/kg/injection, schedule: Q07DX006 (ip), vehicle: saline with Tween-80): 120 % of control | T/C (endpoint: mean tumor weight, dose: 200.0 mg/kg/injection, schedule: Q07DX006 (ip), vehicle: saline with Tween-80): 161 % of control | T/C (endpoint: mean tumor weight, dose: 400.0 mg/kg/injection, schedule: Q07DX006 (ip), vehicle: saline with Tween-80): 67 % of control | T/C (endpoint: median tumor weight (est.), dose: 12.5 mg/kg/injection, schedule: Q07DX005 (ip), vehicle: saline with Tween-80): 55 % of control | T/C [1]: 61 % of control | T/C (endpoint: median tumor weight (est.), dose: 50.0 mg/kg/injection, schedule: Q07DX005 (ip), vehicle: saline with Tween-80): 122 % of control | T/C [2]: 84 % of control | T/C [3]: 49 % of control

COc1ccc2c(c1[N+](=O)[O-])CC[C@@H]1[C@@H]2CC[C@]2(C)C(=O)CC[C@@H]12
T/C (endpoint: median tumor weight change, dose: 62.5 mg/kg/injection, schedule: Q01DX001 (ip), vehicle: saline with Tween-80): 90 % of control | T/C [4]: 84 % of control | T/C (endpoint: median tumor weight change, dose: 500.0 mg/kg/injection, schedule: Q01DX001 (ip), vehicle: saline with Tween-80): 100 % of control

Clc1ccc2nnnn2n1
T/C (endpoint: median tumor weight change, dose: 125.0 mg/kg/injection, schedule: Q01DX001 (ip), vehicle: saline with Tween-80): 49 % of control | T/C [4]: 61 % of control

Oc1cc2c3c(c1)c1cc4c(cc1c[n+]3CC2)OCO4
T/C (endpoint: median tumor weight (est.), dose: 6.25 mg/kg/injection, schedule: Q07DX005 (ip), vehicle: water): 81 % of control | T/C (endpoint: median tumor weight (est.), dose: 12.5 mg/kg/injection, schedule: Q07DX005 (ip), vehicle: water): 83 % of control | T/C (endpoint: median tumor weight (est.), dose: 25.0 mg/kg/injection, schedule: Q07DX005 (ip), vehicle: water): 85 % of control | T/C (endpoint: median tumor weight (est.), dose: 50.0 mg/kg/injection, schedule: Q07DX005 (ip), vehicle: water): 94 % of control | T/C (endpoint: median tumor weight (est.), dose: 100.0 mg/kg/injection, schedule: Q07DX005 (ip), vehicle: water): 78 % of control

Oc1cc2ccccc2c(-c2c(O)c(O)cc3ccccc23)c1O
T/C [1]: 67 % of control | T/C [2]: 55 % of control | T/C [3]: 109 % of control

CC/C(=C(\c1ccccc1)c1ccc(OCCN(C)C)cc1)c1ccccc1
T/C (endpoint: mean tumor weight (est.), dose: 150.0 mg/kg/injection, schedule: Q07DX002 (ip), vehicle: saline): 102 % of control | T/C (endpoint: mean tumor weight (est.), dose: 200.0 mg/kg/injection, schedule: Q07DX002 (ip), vehicle: saline): 100 % of control | T/C (endpoint: mean tumor weight, dose: 100.0 mg/kg/injection, schedule: Q07DX007 (ip), vehicle: saline): 45 % of control | T/C (endpoint: mean tumor weight, dose: 150.0 mg/kg/injection, schedule: Q07DX008 (ip), vehicle: saline): 52 % of control | T/C (endpoint: mean tumor weight, dose: 200.0 mg/kg/injection, schedule: Q07DX007 (ip), vehicle: saline): 15 % of control | T/C (endpoint: mean tumor weight, dose: 200.0 mg/kg/injection, schedule: Q07DX008 (ip), vehicle: saline): 31 % of control | T/C (endpoint: median tumor weight change, dose: 25.0 mg/kg/injection, schedule: Q01DX001 (ip), vehicle: suspension in saline): 105 % of control | T/C (endpoint: median tumor weight change, dose: 50.0 mg/kg/injection, schedule: Q01DX001 (ip), vehicle: suspension in saline): 111 % of control | T/C (endpoint: median tumor weight change, dose: 100.0 mg/kg/injection, schedule: Q01DX001 (ip), vehicle: suspension in saline): 150 % of control | T/C (endpoint: median tumor weight change, dose: 200.0 mg/kg/injection, schedule: Q01DX001 (ip), vehicle: suspension in saline): 158 % of control

Nc1ccn([C@@H](C=O)O[C@@H](C=O)CO)c(=O)n1
T/C (endpoint: median tumor weight (est.), dose: 25.0 mg/kg/injection, schedule: Q07DX005 (ip), vehicle: suspension in saline): 122 % of control | T/C (endpoint: median tumor weight (est.), dose: 50.0 mg/kg/injection, schedule: Q07DX005 (ip), vehicle: suspension in saline): 188 % of control | T/C (endpoint: median tumor weight (est.), dose: 100.0 mg/kg/injection, schedule: Q07DX005 (ip), vehicle: suspension in saline): 151 % of control | T/C (endpoint: median tumor weight (est.), dose: 200.0 mg/kg/injection, schedule: Q07DX005 (ip), vehicle: suspension in saline): 105 % of control
